In article PMC3285688, “Active Site Mutations Change the Cleavage Specificity of Neprilysin” (PLoS ONE, 2012):

Columns and labels:
[1] = tested on: NEP and each of the studied mutants; test: Inhibition of Glut-Ala-Ala-Phe-MNA hydrolysis by NEP inhibitors; type: biochemical, human
Method: Reactions of 400 µl contained 100 µM Glut-Ala-Ala-Phe-MNA, 1 µg of aminopeptidase and 15 to 100 ng of NEP or mutant NEP depending on their activity in 20 mM MES buffer, pH 6.5. Activity was monitored with a Spectra Max Gemini XS plate reader using an excitation wavelength of 340 nm and an emission wavelength of 425 nm.

[2] = tested on: NEP; test: Degradation of peptide substrates by NEP: extent and cleavage sites (HPLC, mass spectrometry); conditions: for Cleavage site (bond cleaved): NEP and mutants, 20 mM MES pH 6.5, 37°C
Method: Degradation of insulin B chain by wild-type NEP was analyzed by reverse-phase HPLC following the appearance of each product as a function of time, Figure 1 . Product peaks were collected and subsequently analyzed by mass spectrometry to determine their identities. […] Based on the order of appearance of each peak, it is likely that insulin B chain1–10, insulin B chain1–11, insulin B chain1–14 and its partner peak insulin B chain15–30, insulin B chain17–30, and insulin B chain24–30 are all products of primary cleavages. These products appear at the first time point when approximately 15% hydrolysis of insulin B chain had occurred (30 minutes). At 30% hydrolysis (90 min.), peaks corresponding to insulin B chain1–5 and insulin B chain17–24 are observed. Peaks for insulin B chain1–16 and insulin B chain15–23 become apparent at >30% insulin B chain hydrolysis. […] It is likely that these are transient products that are subsequently cleaved contributing to other product peaks (i.e. insulin B chain24–30).
To further study the effect of mutations on cleavage site specificity, time course assays were also performed for the hydrolysis of the physiological substrate Aß1–40. Like the analysis of insulin B chain, a time course assay was first done with NEP to identify cleavage products, Figure 3 and Table 6 . After 15% hydrolysis of Aß1–40 (150 min.) by NEP there were six discernable product peaks corresponding to Aß1–16, Aß1–17, Aß10–17, Aß20–28, Aß20–29, and Aß20–30. […]
Cleavage of physiological peptides was measured via reverse phase high performance liquid chromatography (HPLC) following incubation of the purified NEP or its mutants with 15 µM insulin B chain (Sigma Aldrich), 24 µM Aß1–40 (Anaspec), or 64 µM leu-ENK (Sigma) in 100 µL of 20 mM MES, pH 6.5, at 37°C. […] Peptides and hydrolysis products were detected at 214 nm and quantified by measuring peak areas. Peptides obtained from HPLC were analyzed on an Applied Biosystems 4800 MALDI TOF/TOF Proteomics Analyzer at the University of Kentucky Proteomics core. […]

[3] = tested on: NEP; conditions: cited from earlier work
Text: Two other studies have identified NEP cleavage sites within Aß1–40 [25], [26].

Molecule: O=C(O)CCNC(=O)[C@H](Cc1ccc(-c2ccccc2)cc1)NCP(=O)(O)O [CGS 24592]
- Inhibition of Glut-Ala-Ala-Phe-MNA hydrolysis ([1]; inhibitor at 10 nM): completely inhibited

Molecule: Tyr-Gly-Gly-Phe-Leu [leu-ENK, leucine^5-enkephalin, leucine5-enkephalin (Tyr-Gly-Gly-Phe-Leu), physiological substrate]
- Cleavage site (bond cleaved) [2]: Gly-Phe bond

Molecule: glutaryl-Ala-Ala-Phe-4-methoxy-2-naphthylamide [Glut-Ala-Ala-Phe-MNA, fluorogenic peptide substrate]
- Cleavage site (bond cleaved) [2]: Ala-Phe peptide bond

Molecule: Aß1–40: amyloid beta peptide 1–40, physiological substrate (Anaspec)
- Additional unreported cleavage sites detected in Aß1–40 [2]: E^11-V^12, K^16-L^17, and L^17-V^18
- Cleavages of Aß1–40 detected by Leissring et al. [3]: Cleavages at K^28-G^29 and G^29-A^30
- Cleavages of Aß1–40 detected in two other studies and the current study [3]: G^9-Y^10, F^19-F^20, and A^30-I^31

Molecule: CC(C)C[C@H](NP(=O)(O)O[C@@H]1O[C@@H](C)[C@H](O)[C@@H](O)[C@H]1O)C(=O)N[C@@H](Cc1c[nH]c2ccccc12)C(=O)O [phosphoramidon]
- Inhibition of Glut-Ala-Ala-Phe-MNA hydrolysis ([1]; inhibitor at 100 µM): completely inhibited
